Reference: patent publication US20160120864A1, “Novel Pyrrole Derivatives” (priority 2013, published 2016)
Counter-ions that a name gives are not always drawn.

What was measured:
physchem [1] = type: physicochemical; conditions: for solubility: aqueous buffer, thermodynamic from solid, PBS pH 7.2; for Solubility in aqueous formulations compatible with intravenous dosing (in words): aqueous formulations at the desired concentrations
Description: PBS solutions for solubility and stability studies were prepared by dissolving 1 Oxoid™ tablet (obtained from Thermo Scientific) in deionised water (100 mL).
Solubility studies were performed by charging a vial with 5-10 mg of compound followed by the addition of PBS solution to achieve a concentration of 100 mg/ml. If solubility was not observed, the solution was diluted to concentrations of 50 mg/ml, 25 mg/ml and 4 mg/ml consecutively until complete solubility was observed.

physchem [2] = type: physicochemical; conditions: buffer; PBS, 37.5° C.; read-out: Chemical stability in aqueous formulation (t½) (converted)
Description: Stability studies were carried out by dissolving 1-2 mg of compound in DMSO (1 mL) followed by addition of 0.4 mL of the resulting solution to stirred PBS solution (9.6 mL) at 37.5° C. A sample (ca. 0.5 mL) was immediately taken for HPLC analysis. Further samples were then taken for analysis at various timepoints thereafter. Half-lives were determined from the decrease in concentration of compound with respect to time.
Stability studies were performed by dissolving 1-2 mg of compound in DMSO (1 ml) followed by addition of 0.4 ml of the resulting solution to stirred PBS (9.6 ml) at 37.5° C. A sample (-j 0.5 ml) was immediately taken for HPLC analysis. Further samples were then taken for analysis at various time-points thereafter. Half-lives were determined from the decrease in concentration of compound with respect to time.

[3] = type: in vitro ADME; conditions: mouse plasma, 37° C., starting 10 μM
Description: The samples were then analysed by LC-MS/MS to obtain the amount of active compound appearing and prodrug derivative remaining over time.
The prodrug derivative of the invention was assessed in mouse plasma stability assay at a concentration of 10 μM. Test compounds were diluted in DMSO to a final stock concentration of 10 mM. For the purpose of the assay, the stocks prepared were further diluted in DMSO to a concentration of 400 μM and 5 μL were added to 195 μL of mouse plasma (pH 7.4) and then incubated at 37° C. The final concentration of DMSO in the plate was 2.5% (v/v). Reactions were terminated at 0, 15, 30, 60 and 120 min after incubation by adding 400 μL of acetonitrile containing 0.55 μM metoprolol and 1% (v/v) formic acid. The plate was then centrifuged at 3000 rpm, for 45 min, at 4° C. 80 μL of supernatant were transferred into a conical bottom 96 well glass coated plate. 40 μL of water were added prior to analysis for prodrug derivative and active species by LC-MS/MS. This assay was performed by a contract research organisation, Cyprotex Discovery Limited, UK, at the request of the inventors at Leicester.
The quantification of the prodrug compound remaining and the parent active compound appearing was performed as follows:
(1) The parent active compound was quantified using a 6 point calibration curve prepared in deactivated mouse plasma. (2) The percentage of prodrug compound remaining at each time point relative to 0 min sample was calculated from LC-MS/MS peak area ratios (compound peak area/internal standard peak area). This percentage was then used to determine the concentration of the prodrug compound at each time point in reference to the starting concentration (10 μM) at time 0 min.

pneumolysin = pneumolysin (Streptococcus pneumoniae serotype 2, UniProt Q04IN8); assay: Inhibition of the haemolytic activity of pneumolysin (sheep erythrocytes); type: cell-based
Description: A. Primary In Vitro Assay: Inhibition of the Haemolytic Activity of Pneumolysin
The basis of this assay is that when pneumolysin is added to red blood cells, it induces their lysis and leads to the release of haemoglobin. In the presence of an inhibitory compound, pneumolysin-induced lysis is abolished, the red blood cells pellet at the bottom of the microtitre plate well and the supernatant is clear. However, if the compound is not inhibitory, the red blood cells are lysed and haemoglobin is released into the supernatant.
Test compound solutions (typically at 5 mM in DMSO) were diluted 1:1 in 100% DMSO. The compounds were then two-fold serially diluted in 100% DMSO across 11 wells of 96-well round-bottomed microtitre plate. PBS was then added to all the wells to achieve a 1:10 dilution of the compound in PBS. Pneumolysin was then added at a concentration equal to its LD100. Plates were then incubated at 37° C. for 30-40 min. After the incubation period, an equal volume of 4% (v/v) sheep erythrocyte suspension was added to each well and the plates incubated again at 37° C., for at least 30 min. […] Following the incubation with the erythrocytes, the Absorbance at 595 nm of each well was measured and the data used to determine the IC50 for each test compound. The IC50 values were determined using non-linear regression curve fitting. […]

pneumolysin, sequence (Q04IN8 whole entry): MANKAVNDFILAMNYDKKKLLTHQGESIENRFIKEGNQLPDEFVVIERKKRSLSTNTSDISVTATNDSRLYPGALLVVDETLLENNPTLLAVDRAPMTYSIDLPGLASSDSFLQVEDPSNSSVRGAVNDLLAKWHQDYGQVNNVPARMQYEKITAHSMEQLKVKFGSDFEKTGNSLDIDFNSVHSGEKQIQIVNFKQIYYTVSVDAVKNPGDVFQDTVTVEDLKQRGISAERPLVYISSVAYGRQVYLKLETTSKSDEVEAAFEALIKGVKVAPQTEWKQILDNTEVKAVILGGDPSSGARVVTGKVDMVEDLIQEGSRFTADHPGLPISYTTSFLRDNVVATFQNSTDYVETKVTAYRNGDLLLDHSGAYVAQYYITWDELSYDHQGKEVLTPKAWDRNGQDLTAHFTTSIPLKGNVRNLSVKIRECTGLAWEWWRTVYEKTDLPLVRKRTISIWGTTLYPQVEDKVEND

Row | SMILES | solubility (physchem [1]) [mg/mL] | Solubility in aqueous formulations compatible with intravenous dosing (in words) (physchem [1]) | half-life (physchem [2]) [h] | Prodrug (UL7-002) concentration remaining, t0 min. ([3]; 0 min) [µM] | Prodrug (UL7-002) concentration remaining, t15 min. ([3]; 15 min) [µM] | Prodrug (UL7-002) concentration remaining, t30 min. ([3]; 30 min) [µM] | Prodrug (UL7-002) concentration remaining, t60 min. ([3]; 60 min) [µM] | Prodrug (UL7-002) concentration remaining, t120 min. ([3]; 120 min) [µM] | IC50 (pneumolysin) [µM]
1 | COc1ccc(-n2c(C(=O)N3CCN(C)CC3)c(OC(=O)C(C)C)c(OC(=O)C(C)C)c2C(=O)N2CCN(C)CC2)cc1 [UL7-002, 1-(4-Methoxyphenyl)-2,5-bis(4-methylpiperazine-1-carbonyl)-1H-pyrrole-3,4-diyl bis(2-methylpropanoate)dihydrochloride] | ≥ 100 | readily soluble | 47 | 10.00 | 0.00 | 0.01 | 0.00 | 0.00 | 6.8
2 | COc1ccc(-n2c(C(=O)N3CCN(C)CC3)c(O)c(O)c2C(=O)N2CCN(C)CC2)cc1 [UL7-001, (3,4-Dihydroxy-1-(4-methoxyphenyl)-1H-pyrrole-2,5-diyl)bis((4-methylpiperazin-1-yl)methanone)] | ≥ 100 | readily soluble | < 0.5 |  |  |  |  |  | 0.3
